In PMC10636135, “Computational design of highly efficient thermostable MHET hydrolases and dual enzyme system for PET recycling” (Communications Biology, 2023):

What was measured:
[1] = biological target: T1, 1EVQ (thermostable scaffold) (Alicyclobacillus acidocaldarius, UniProt Q7SIG1); assay: relative MHET hydrolysis activity; assay type: biochemical; settings: 4.8 mM MHET, 0.25 μM enzyme, 50 mM sodium phosphate, pH 7.5, 50 °C, 10 min
T1 construct: synthesized codon-optimized gene, pET-22b(+), E. coli BL21(DE3); named only by PDB code

[2] = test system: T2, KL36F (fusion of KL-MHETase and FAST-PETase); assay: initial rates, TPA by HPLC, Michaelis-Menten fit; assay type: biochemical, Geobacillus stearothermophilus; settings: 50 mM sodium phosphate, pH 7.5, 50 °C
T2 construct: gene est; order judged from name; FAST-PETase moiety also hydrolyses MHET weakly; with Poly(ethylene terephthalate) hydrolase

`O=C(O)c1ccc(C(=O)OCCO)cc1` [MHET] was tested, and the relative activity [1] was 1EVQ and 1TQH, exhibited apparent activity with regard to MHET hydrolysis and the Km [2] was 4.52 ± 0.67 mM.
